# Data taken from article PMC7926352, “Synthesis, Characterization and In Vitro Evaluation of Novel 5-Ene-thiazolo[3,2-b][1,2,4]triazole-6(5H)-ones as Possible Anticancer Agents” (Molecules, 2021).
# Read-outs that look alike come from different tables or passages of the source.
# Legend:
# SK-MEL-28 = details: SK-MEL-28, Melanoma
# MDA-MB-435 = details: MDA-MB-435, Breast Cancer
# HCT-116 = details: HCT-116, Colon cancer
# HS 578T = details: HS 578T, Breast Cancer
# COLO 205 = format: cell-based; details: COLO 205, Colon cancer
# A498 = details: A498, Renal Cancer
# SN12C = details: Renal Cancer
# Colon cancer cell lines = details: Colon cancer subpanel
# HOP-62 = details: HOP-62, NSCLC
# SK-MEL-5 = details: SK-MEL-5, Melanoma
# OVCAR-4 = details: OVCAR-4, Ovarian Cancer
# [1] = system: NSCLC (Non-small Cell Lung Cancer) cell lines; details: NSCLC subpanel
# CCRF-CEM = details: Leukemia
# NCI-H522 = details: NCI-H522, NSCLC
# Breast Cancer cell lines = details: Breast Cancer subpanel
# [2] = system: human embryonic kidney (HEK 293) cell lines; assay: MTT cytotoxicity assay; format: cell-based; details: HEK 293, MTT, 24 h
# Protocol: Compounds 2h and 2i were also evaluated in vitro for their cytotoxic potential against human embryonic kidney (HEK 293) cell lines using the MTT assay.
# The cytotoxicity of compounds 2h and 2i was analyzed in vitro by the MTT colorimetric assay on human embryonic kidney cell lines (HEK 293). HEK cell lines were cultured in DMEM supplemented with 10% fetal calf serum and 1% antibiotic-antimycotic mixture culture plates at 37 °C and 5% CO2-humidified incubator. Cells were seeded at a density of 1 × 10^5 cells/well in 96-well plate for 24 h; then, cells were washed and incubated in fresh medium. Compounds 2h and 2i were added at a concentration of 1, 5, 10, 25, and 50 μg/mL to triplicate wells and kept for 24 h, after which cells were washed three times with PBS. After washing, 20 μL of MTT solution (5 mg/mL stock solution) were added to each well, and cells were then incubated for an additional 4 h. The unreacted MTT dye and medium were aspirated off, and 100 μL of DMSO was added to each well to ensure solubilization of formazan crystals. The contents of the plates were mixed for 15 min to achieve complete solubilization of the formazan crystals, and the measurement of optical density was carried out at 570 nm with a micro plate spectrophotometer (MRX Microplate Reader, Dynatech Laboratories Inc., Chantilly, VA, USA) at 570 nm.
# SNB-19 = format: cell-based; details: SNB-19, CNS Cancer
# K-562 = details: K-562, Leukemia
# T-47D = format: cell-based; details: Breast Cancer
# CNS Cancer cell lines = details: CNS Cancer subpanel
# KM12 = details: KM12, Colon cancer
# HCC-2998 = details: HCC-2998, Colon cancer
# UO-31 = details: UO-31, Renal Cancer
# Leukemia cell lines = details: Leukemia subpanel
# NCI/ADR-RES = details: Breast Cancer
# [3] = read-out: LC50 (the source's name)
# [4] = read-out: GI50, values range inside panel
substance,measurement,setting,value
"Ethyl(Z)-4-(3-(4-chloro-2-((6-oxothiazolo[3,2-b][1,2,4]triazol-5(6H)-ylidene)methyl)phenyl)propanamido)benzoate [Compound 2i]",GI50,SK-MEL-28,12 µM
same,TGI,SK-MEL-28,23.98 µM
same,GI50,MDA-MB-435,10.5 µM
same,TGI,MDA-MB-435,25.11 µM
same,GI50,HCT-116,9.55 µM
same,TGI,HCT-116,23.44 µM
same,GI50,HS 578T,3.54 µM
same,TGI,HS 578T,19.49 µM
same,GI50,COLO 205,14.8 µM
same,TGI,COLO 205,31.62 µM
same,CC50,COLO 205; [3],67.6 µM
same,GI50,A498,17.4 µM
same,TGI,A498,31.62 µM
same,GI50,SN12C,12.6 µM
same,TGI,SN12C,25.11 µM
same,"TGI, panel MG_MID",Colon cancer cell lines,26.51 µM
same,"TGI, values range inside panel",Colon cancer cell lines,21.37 to 33.11 µM
same,GI50,"Colon cancer cell lines; read-out: GI50, panel MG_MID",12.4 µM
same,GI50,Colon cancer cell lines; [4],9.55 to 16.6 µM
same,GI50,HOP-62,13.2 µM
same,TGI,HOP-62,26.91 µM
same,GI50,SK-MEL-5,10.5 µM
same,TGI,SK-MEL-5,21.87 µM
same,GI50,OVCAR-4,12.9 µM
same,TGI,OVCAR-4,38.90 µM
same,"TGI, panel MG_MID",[1],30.03 µM
same,"TGI, values range inside panel",[1],25.70 to 39.81 µM
same,GI50,"[1]; read-out: GI50, panel MG_MID",14.1 µM
same,GI50,[1]; [4],10.2 to 19.5 µM
same,GI50,CCRF-CEM,2.88 µM
same,TGI,CCRF-CEM,9.99 µM
same,GI50,NCI-H522,11.7 µM
same,TGI,NCI-H522,28.84 µM
same,"TGI, panel MG_MID",Breast Cancer cell lines,30.29 µM
same,GI50,"Breast Cancer cell lines; read-out: GI50, panel MG_MID",9.72 µM
same,GI50,Breast Cancer cell lines; [4],3.54 to 21.9 µM
same,IC50,[2],24.4 µM
same,GI50,SNB-19,10.2 µM
same,TGI,SNB-19,23.44 µM
same,CC50,SNB-19; [3],52.5 µM
same,GI50,K-562,18.2 µM
same,TGI,K-562,> 100 µM
same,GI50,T-47D,11 µM
same,TGI,T-47D,38.01 µM
same,CC50,T-47D; [3],41.7 µM
same,"TGI, panel MG_MID",CNS Cancer cell lines,27.42 µM
same,"TGI, values range inside panel",CNS Cancer cell lines,19.05 to 44.66 µM
same,GI50,"CNS Cancer cell lines; read-out: GI50, panel MG_MID",9.85 µM
same,GI50,CNS Cancer cell lines; [4],6.02 to 13.2 µM
same,GI50,KM12,10.2 µM
same,TGI,KM12,23.98 µM
same,GI50,HCC-2998,16.6 µM
same,TGI,HCC-2998,33.11 µM
same,GI50,UO-31,15.1 µM
same,TGI,UO-31,29.51 µM
same,"TGI, panel MG_MID",Leukemia cell lines,51.55 µM
same,GI50,"Leukemia cell lines; read-out: GI50, panel MG_MID",11.3 µM
same,GI50,Leukemia cell lines; [4],2.88 to 18.2 µM
same,GI50,NCI/ADR-RES,21.9 µM
same,TGI,NCI/ADR-RES,67.60 µM
